Measurements as given in PMC11500415, “Chemical inhibition of stomatal differentiation by perturbation of the master-regulatory bHLH heterodimer via an ACT-Like domain” (Nature Communications, 2024).
Where “and” joins values, the source holds several entries; their conditions need not be identical. Equal entries are not always repeated.

Tests used:
Type in all cases: cell-based
[1] = molecular target: T1, DB+SCRM (control yeast) (Arabidopsis thaliana, UniProt Q9LSE2); test: Y2H quantitative α-galactosidase assay, control yeast DB+SCRM; settings: media -WL, replicates #1-#3
T1 construct: expressed in transfected cells; host or cells: yeast strain AH109
T1 sequence (Q9LSE2 1-494): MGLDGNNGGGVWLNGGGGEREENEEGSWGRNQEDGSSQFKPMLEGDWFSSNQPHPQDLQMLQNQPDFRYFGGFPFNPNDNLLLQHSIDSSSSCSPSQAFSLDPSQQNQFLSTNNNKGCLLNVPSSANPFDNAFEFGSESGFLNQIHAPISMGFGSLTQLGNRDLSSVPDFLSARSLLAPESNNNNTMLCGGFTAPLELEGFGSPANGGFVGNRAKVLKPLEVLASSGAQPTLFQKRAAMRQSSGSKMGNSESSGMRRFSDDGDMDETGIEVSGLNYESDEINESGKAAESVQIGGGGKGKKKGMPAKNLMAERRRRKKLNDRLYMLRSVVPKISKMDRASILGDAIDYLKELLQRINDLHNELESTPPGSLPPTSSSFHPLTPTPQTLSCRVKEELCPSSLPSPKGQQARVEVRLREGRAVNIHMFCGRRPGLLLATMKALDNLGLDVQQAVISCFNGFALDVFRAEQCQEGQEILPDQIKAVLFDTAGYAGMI

[2] = molecular target: T2, SCRM-SPCH heterodimer (Arabidopsis thaliana, UniProt Q700C7); test: Y2H growth and quantitative α-galactosidase assay; settings: yeast SPCH∆N+SCRM, media -WLH, replicates #1-#3
T2 construct: truncated SPCH and FAMA proteins lacking their N-terminal domain were used in yeast; expressed in transfected cells; host or cells: yeast strain AH109
T2 sequence (Q700C7 98-364 limits assumed): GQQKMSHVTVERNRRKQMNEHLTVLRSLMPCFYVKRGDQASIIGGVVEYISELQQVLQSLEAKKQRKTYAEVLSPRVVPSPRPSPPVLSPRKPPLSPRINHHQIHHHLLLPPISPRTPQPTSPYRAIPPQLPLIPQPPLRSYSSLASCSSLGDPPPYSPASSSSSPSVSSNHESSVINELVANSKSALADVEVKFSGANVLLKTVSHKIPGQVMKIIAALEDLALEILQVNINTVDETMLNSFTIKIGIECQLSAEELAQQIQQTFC
Protocol: (§1) Y2H assays were performed using the Matchmaker^TM Two-Hybrid System (Clontech). Bait (pGBKT7) and prey (pGADT7) constructs were co-transformed into the yeast strain AH109 using Frozen-EZ Yeast Transformation II Kit (Zymo Research, T2001). The resulting transformants were spotted on SD ( − Leu, −Trp) and SD ( − Trp, −Leu, −His) selection media containing different concentrations of 3-amino-1,2,4-triazole (Sigma, A8056) as previously reported. Quantitative α-galactosidase assay was also performed according to manufactural instruction (Clontech). Briefly, the transformants were incubated in 2 ml SD medium with 0, 10, 50 100 μM Stomidazolone (3) or SIM3* (7) with rotary shake (220 rpm) at 30 °C overnight. The cultured media containing yeast were transferred to microtubes and centrifuged to obtain the supernatant. The colorimetric assay was performed by incubating 8 μL of supernatant with 24 μL Assay Buffer that contains 0.5 M sodium acetate (pH 4.5) (Nakalai tesque, 31137-25): 100 mM p-nitrophenyl α-D-Galactopyranoside Solution (Sigma N0877) = 2:1 (v/v) at 30 °C for 60 min, then terminated by adding 960 μL 1X Stop Solution (0.1 M sodium carbonate, Fujifilm Wako 195-01582). After OD410 was recorded, α-galactosidase units were calculated according to the protocol (Clontech, P3024-1).

[3] = molecular target: T3, SCRM-FAMA heterodimer (Arabidopsis thaliana, UniProt Q56YJ8); test: Y2H growth and quantitative α-galactosidase assay; settings: yeast FAMA∆N+SCRM, media -WLH, replicates #1-#3
T3 construct: truncated SPCH and FAMA proteins lacking their N-terminal domain were used in yeast; expressed in transfected cells; host or cells: yeast strain AH109
Protocol: as §1

[4] = molecular target: T4, SCRM-MUTE heterodimer (Arabidopsis thaliana, UniProt Q9M8K6); test: Y2H growth and quantitative α-galactosidase assay; settings: yeast MUTE+SCRM, media -WLH, replicates #1-#3
T4 construct: expressed in transfected cells; host or cells: yeast strain AH109
T4 sequence (Q9M8K6 1-202): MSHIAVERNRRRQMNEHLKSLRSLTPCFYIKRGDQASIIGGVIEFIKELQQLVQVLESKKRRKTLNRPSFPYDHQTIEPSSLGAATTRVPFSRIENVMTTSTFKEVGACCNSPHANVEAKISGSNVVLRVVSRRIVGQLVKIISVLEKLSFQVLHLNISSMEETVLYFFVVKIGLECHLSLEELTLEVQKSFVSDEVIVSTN
Protocol: as §1

[5] = molecular target: T5, MUTE+AD (control yeast) (Arabidopsis thaliana, UniProt Q9M8K6); test: Y2H quantitative α-galactosidase assay, control yeast MUTE+AD; settings: media -WL, replicates #1-#3
T5 construct: expressed in transfected cells; host or cells: yeast strain AH109
T5 sequence (Q9M8K6 1-202): T4 sequence (Q9M8K6 1-202)
From the text: Supplement 41467_2024_53214_MOESM7_ESM.xlsx, sheet "Fig.S5" | column: Meristemoid

T3 sequence (Q56YJ8 190-414, one chain of several): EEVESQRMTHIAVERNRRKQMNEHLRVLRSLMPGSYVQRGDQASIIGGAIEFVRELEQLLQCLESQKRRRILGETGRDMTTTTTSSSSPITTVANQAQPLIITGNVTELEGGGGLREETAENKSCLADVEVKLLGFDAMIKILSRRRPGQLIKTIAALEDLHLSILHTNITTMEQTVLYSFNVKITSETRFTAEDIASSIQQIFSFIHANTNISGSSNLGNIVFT

Cc1nc(-c2ccccc2)c(NS(=O)(=O)c2ccccc2)o1 [SIM3*]
a-galactosidase ([1]; 10 µM): 0.04682 milliunits /(ml x cell) and 0.1024 milliunits /(ml x cell) and 0.1038 milliunits /(ml x cell) | a-galactosidase ([1]; 50 µM): 0.1114 milliunits /(ml x cell) and 0.04747 milliunits /(ml x cell) and 0.1243 milliunits /(ml x cell) | a-galactosidase ([1]; 100 µM): 0.1293 milliunits /(ml x cell) and 0.1919 milliunits /(ml x cell) and 0.06561 milliunits /(ml x cell) | a-galactosidase ([2]; 10 µM): 4.934 milliunits /(ml x cell) and 5.0596 milliunits /(ml x cell) and 4.687 milliunits /(ml x cell) | a-galactosidase ([2]; 50 µM): 4.693 milliunits /(ml x cell) and 5.268 milliunits /(ml x cell) and 5.059 milliunits /(ml x cell) | a-galactosidase ([2]; 100 µM): 6.071 milliunits /(ml x cell) and 5.524 milliunits /(ml x cell) and 5.145 milliunits /(ml x cell) | a-galactosidase ([3]; 10 µM): 9.596 milliunits /(ml x cell) and 8.612 milliunits /(ml x cell) and 10.2528 milliunits /(ml x cell) | a-galactosidase ([3]; 50 µM): 8.883 milliunits /(ml x cell) and 8.135 milliunits /(ml x cell) and 9.605 milliunits /(ml x cell) | a-galactosidase ([3]; 100 µM): 8.9516 milliunits /(ml x cell) and 9.181 milliunits /(ml x cell) and 8.943 milliunits /(ml x cell) | a-galactosidase ([4]; 10 µM): 6.318 milliunits /(ml x cell) and 6.221 milliunits /(ml x cell) and 6.24 milliunits /(ml x cell) | a-galactosidase ([4]; 50 µM): 7.176 milliunits /(ml x cell) and 6.898 milliunits /(ml x cell) and 6.187 milliunits /(ml x cell) | a-galactosidase ([4]; 100 µM): 6.801 milliunits /(ml x cell) and 6.285 milliunits /(ml x cell) and 6.027 milliunits /(ml x cell) | a-galactosidase ([5]; 10 µM): 0.05913 milliunits /(ml x cell) and 0.1128 milliunits /(ml x cell) and 0.06646 milliunits /(ml x cell) | a-galactosidase ([5]; 50 µM): 0.06252 milliunits /(ml x cell) and 0.06546 milliunits /(ml x cell) and 0.1442 milliunits /(ml x cell) | a-galactosidase ([5]; 100 µM): 0.1449 milliunits /(ml x cell) and 0.1698 milliunits /(ml x cell) and 0.1689 milliunits /(ml x cell)
